Measured values reported in US11590116B2 (THERAVANCE BIOPHARMA R&D IP, LLC, priority 2019, dated 2023).

Key:
[1] = biological target: T1, recombinant human ALK5 (TGF-βR1) protein (Homo sapiens, UniProt P36897); experiment: Biochemical ALK5 (TGF-βR1) assay to measure pKi (LANCE Ultra ULight kinase assay); details: apparent pKi from pIC50 by Cheng-Prusoff, read-out: ALK5 pKi (converted)
T1 construct: purchased Life Technologies PR9075A
T1 sequence (P36897 34-503): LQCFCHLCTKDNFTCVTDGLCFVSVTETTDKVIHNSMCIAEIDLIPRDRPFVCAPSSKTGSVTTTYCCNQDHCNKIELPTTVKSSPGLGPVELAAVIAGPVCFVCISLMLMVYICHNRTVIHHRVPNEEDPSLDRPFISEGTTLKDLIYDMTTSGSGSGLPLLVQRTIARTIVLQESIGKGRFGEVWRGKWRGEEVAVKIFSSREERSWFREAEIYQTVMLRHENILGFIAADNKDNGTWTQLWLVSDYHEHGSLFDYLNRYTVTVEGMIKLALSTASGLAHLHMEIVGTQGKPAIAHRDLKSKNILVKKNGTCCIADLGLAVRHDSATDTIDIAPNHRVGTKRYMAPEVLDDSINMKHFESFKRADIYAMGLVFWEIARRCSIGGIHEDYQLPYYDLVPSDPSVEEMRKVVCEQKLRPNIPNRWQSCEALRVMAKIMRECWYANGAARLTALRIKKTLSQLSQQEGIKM
Summary of the method: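 After a 60 min room-temperature preincubation of ALK5 with compound, phosphorylation proceeds 60 min at 37 °C on ATP addition (125 μM as 5× stock). Detection: Eu-labelled phospho-Thr1342 Topo IIα antibody in EDTA buffer, pH 7.0; emission 665 nm.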

[2] = test system: TGF-β-stimulated SMAD3 phosphorylation in BEAS-2B cells; experiment: Cellular ALK5 potency assay, inhibition of TGF-β stimulated pSMAD3 formation in BEAS-2B cells; assay type: cell-based; details: Homo sapiens; inhibition of TGF-β stimulated pSMAD3 formation, BEAS-2B cells; read-out: BEAS2B pIC50 (converted)
Summary of the method: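 AlphaLISA pSMAD3 read-out, beads incubated overnight. Human BEAS-2B cells: 1 h compound preincubation (37 °C, 5% CO2), then 30 min TGF-β at 10 ng/mL final, immediate lysis. Values are pIC50 relative to stimulated, compound-free baseline.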

| Ki [1] | Structure (SMILES) | IC50 [2] |
| --- | --- | --- |
| < 0.0316 nM | Cc1nc(-c2n[nH]cc2-c2ccc3ncc(-c4cnn5c4NCCC5)cc3n2)ccc1F [Compound 1, 2-[3-(5-fluoro-6-methyl-2-pyridyl)-1H-pyrazol-4-yl]-7-(4,5,6,7-tetrahydropyrazolo[1,5-a]pyrimidin-3-yl)-1,5-naphthyridine] | 25.1 to 158 nM |
| 0.0398 to 0.316 nM | Cc1cccc(-c2[nH]cnc2-c2ccc3ncc(NCCN4CCCC4(C)C)cc3n2)n1 [Compound 627, N-[2-(2,2-dimethylpyrrolidin-1-yl)ethyl]-6-[5-(6-methyl-2-pyridyl)-1H-imidazol-4-yl]-1,5-naphthyridin-3-amine] | 25.1 to 158 nM |
| < 0.0316 nM | Cc1cccc(-c2[nH]cnc2-c2ccc3ncc(-c4cn[nH]c4)cc3n2)n1 [Compound 644, 2-(5-(6-methylpyridin-2-yl)-1H-imidazol-4-yl)-7-(1H-pyrazol-4-yl)-1,5-naphthyridine] | < 20 nM |
| 3.98 to 31.6 nM | Cc1cccc(-c2[nH]cnc2-c2ccc3ncc(C(=O)O[C@@H]4CCCC[C@@H]4N)cc3c2)n1 [Compound 881, (1R,2S)-2-aminocyclohexyl 6-(5-(6-methylpyridin-2-yl)-1H-imidazol-4-yl)quinoline-3-carboxylate] | 200 to 1260 nM |
| 0.0398 to 0.316 nM | Cc1cccc(-c2[nH]ncc2-c2ccc3ncc(C(=O)OC4CCC(N)CC4)cc3c2)n1 (centres unmarked) [Compound 1216, (4-aminocyclohexyl) 6-[5-(6-methyl-2-pyridyl)-1H-pyrazol-4-yl]quinoline-3-carboxylate] | < 20 nM |
| 0.0398 to 0.316 nM | Cc1cccc(-c2n[nH]cc2-c2ccc3ncc(NCC4CCCNC4)cc3n2)n1 (centres unmarked) [Compound 199, 6-[3-(6-methyl-2-pyridyl)-1H-pyrazol-4-yl]-N-(3-piperidylmethyl)-1,5-naphthyridin-3-amine] | 200 to 1260 nM |
| 0.0398 to 0.316 nM | CNCCn1cc(-c2ccnc3ccc(-c4c[nH]nc4-c4cccc(C)n4)cc23)cn1 [Compound 865, N-methyl-2-[4-[6-[3-(6-methyl-2-pyridyl)-1H-pyrazol-4-yl]-4-quinolyl]pyrazol-1-yl]ethanamine] | 25.1 to 158 nM |
| 0.0398 to 0.316 nM | Cc1cccc(-c2[nH]cnc2-c2ccc3ncc(C(=O)OCCN4C[C@@H](C)N[C@@H](C)C4)cc3c2)n1 [Compound 886, 2-((3S,5R)-3,5-dimethylpiperazin-1-yl)ethyl 6-(5-(6-methylpyridin-2-yl)-1H-imidazol-4-yl)quinoline-3-carboxylate] | 25.1 to 158 nM |
| 0.398 to 3.16 nM | Cc1cccc(-c2nnn(C)c2-c2ccc3ncc(N4CCNCC4)cc3c2)n1 [Compound 86, 6-[3-methyl-5-(6-methyl-2-pyridyl)triazol-4-yl]-3-piperazin-1-yl-quinoline] | 25.1 to 158 nM |
| 0.0398 to 0.316 nM | Cc1cccc(-c2nnn(Cc3ccccc3)c2-c2ccc3ncc(N4CCCNCC4)cc3n2)n1 [Compound 257, 2-[3-benzyl-5-(6-methyl-2-pyridyl)triazol-4-yl]-7-(1,4-diazepan-1-yl)-1,5-naphthyridine] | 200 to 1260 nM |
| < 0.0316 nM | Cc1cccc(-c2[nH]cnc2-c2ccc3ncc(N4CCC5(CCNCC5)C4)cc3c2)n1 [Compound 160, 2-[6-[5-(6-methyl-2-pyridyl)-1H-imidazol-4-yl]-3-quinolyl]-2,8-diazaspiro[4.5]decane] | 25.1 to 158 nM |
| < 0.0316 nM | Cc1cccc(-c2[nH]cnc2-c2ccc3ncc(-c4csc(C(=O)O[C@H]5C[C@@H](N)C5)c4)cc3c2)n1 [Compound 1243, (3-aminocyclobutyl) 4-[6-[5-(6-methyl-2-pyridyl)-1H-imidazol-4-yl]-3-quinolyl]thiophene-2-carboxylate] | 25.1 to 158 nM |
| < 0.0316 nM | Cc1cccc(-c2nnn(C)c2-c2ccc3ncc(-c4cn[nH]c4)cc3c2)n1 [Compound 399, 6-[3-methyl-5-(6-methyl-2-pyridyl)triazol-4-yl]-3-(1H-pyrazol-4-yl)quinoline] | < 20 nM |
